Laboratory results as given in patent EP4001279A1, “NOVEL SPIROPYRROLIDINE DERIVED ANTIVIRAL AGENTS” (Enanta Pharmaceuticals, Inc., priority 2020, dated 2022).

These compounds were tested on 229E human corona virus (hCoV) (assay: 229E live virus assay (CPE, ATPlite readout in MRC-5 cells)). Settings: Human coronavirus 229E, MRC5, hCoV-229E live virus, MOI 0.05, ATPlite readout, run in duplicate.
Assay type: cell-based, hCoV-229E

Row | Structure (SMILES) | EC50 [nM]
1 | CC(C)C[C@@H](C(=O)N1C[C@]2(C[C@H]1C#N)C(=O)Nc1ccccc12)N(C)C(=O)c1nc2cc(F)ccc2[nH]1 [Example 250] | < 100
2 | CC(C)C[C@@H](C(=O)N1C[C@]2(C[C@H]1C#N)C(=O)Nc1ccccc12)N(C)C(=O)c1sc2cc(F)ccc2c1Cl [Example 43] | < 100
3 | CC(C)C[C@@H](C(=O)N1C[C@]2(C[C@H]1C#N)C(=O)Nc1ccccc12)N(C)C(=O)c1cc2cccnc2cc1F [Example 275] | < 100
4 | CN(C(=O)C(F)(F)c1ccccn1)[C@@H](CC(C)(C)F)C(=O)N1C[C@]2(C[C@H]1C#N)C(=O)Nc1ccc(Cl)cc12 [Example 481] | 100 to 1000
5 | CC(C)C[C@@H](C(=O)N1C[C@]2(C[C@H]1C#N)C(=O)Nc1ccccc12)N(C)C(=O)[C@@H](c1cnn(C)c1)C(C)C [Example 348] | 100 to 1000
6 | Cc1cccc(C)c1NC(=O)N[C@@H](CC(C)(C)C)C(=O)N1C[C@]2(C[C@H]1C#N)C(=O)Nc1ccccc12 [Example 438] | < 100
7 | CC(C)C[C@@H](C(=O)N1C[C@]2(C[C@H]1C#N)C(=O)Nc1ccccc12)N(C)C(=O)c1ccnn1C [Example 203] | < 100
8 | CC(C)C[C@@H](C(=O)N1C[C@]2(C[C@H]1C#N)C(=O)Nc1ccccc12)N(C)C(=O)c1ccc(Cl)cc1Cl [Example 168] | < 100
9 | CC(C)C[C@@H](C(=O)N1C[C@]2(C[C@H]1C#N)C(=O)Nc1ccccc12)N(C)C(=O)c1ccc(F)c2ccccc12 [Example 221] | < 100
10 | COc1cccc2[nH]c(C(=O)NC(CC(C)C)C(=O)N3CC4(CC3C=O)C(=O)Nc3ccccc34)cc12 (centres unmarked) [Example 23] | < 100
11 | CC(C)C[C@@H](C(=O)N1C[C@]2(C[C@H]1C=O)C(=O)Nc1ccccc12)N(C)C(=O)OCc1ccccc1 [Example 24] | < 100
12 | CC(C)C[C@@H](C(=O)N1C[C@]2(C[C@H]1C#N)C(=O)Nc1ccc(C(=O)N3CCOCC3)cc12)N(C)C(=O)c1cc2c(F)cc(F)cc2[nH]1 [Example 502, N-((S)-1-((3R,5'S)-5'-cyano-5-(morpholine-4-carbonyl)-2-oxospiro[indoline-3,3'-pyrrolidin]-1'-yl)-4-methyl-1-oxopentan-2-yl)-4,6-difluoro-N-methyl-1H-indole-2-carboxamide] | < 100
13 | Cc1cccc(C(F)(F)C(=O)N(C)[C@@H](CC(C)(C)F)C(=O)N2C[C@]3(C[C@H]2C#N)C(=O)Nc2ccc(Cl)cc23)n1 [Example 486] | 100 to 1000
14 | C[C@@H](C(=O)N(C)[C@@H](CC(C)(C)C)C(=O)N1C[C@]2(C[C@H]1C#N)C(=O)Nc1ccccc12)c1cnn(C)c1 [Example 372] | < 100
15 | CC(C)C[C@@H](C(=O)N1C[C@]2(C[C@H]1C#N)C(=O)Nc1ccccc12)N(C)C(=O)c1ccc2ccccc2c1 [Example 219] | < 100
16 | COc1cccc2[nH]c(C(=O)N[C@@H](CC(C)C)C(=O)N3C[C@]4(C[C@H]3C(=O)C(=O)NC3CCCCC3)C(=O)Nc3ccccc34)cc12 [Example 33] | > 1000
17 | [2H]C([2H])([2H])N(C(=O)c1ccc2ncc(C(F)(F)F)cc2c1)[C@@H](CC(C)(C)C)C(=O)N1C[C@]2(C[C@H]1C#N)C(=O)Nc1ccccc12 [Example 381] | < 100
18 | N#C[C@@H]1C[C@@]2(CN1C(=O)[C@H](CC1CCC1)NC(=O)OCc1ccccc1)C(=O)Nc1ccccc12 [Example 2] | 100 to 1000
19 | CCN(C(=O)OCc1ccccc1)[C@@H](CC(C)C)C(=O)N1C[C@]2(C[C@H]1C#N)C(=O)Nc1ccccc12 [Compound 90] | 100 to 1000

Row | Structure (SMILES) | EC50 [nM]
20 | CC(C)C[C@@H](C(=O)N1C[C@]2(C[C@H]1C#N)C(=O)Nc1ccccc12)N(C)C(=O)c1cnc2ccccc2c1 [Example 213] | < 100
21 | CC(C)C[C@@H](C(=O)N1C[C@]2(C[C@H]1C#N)C(=O)Nc1ccc(N=[N+]=[N-])cc12)N(C)C(=O)c1cc2c(F)cc(F)cc2[nH]1 [Example 503, N-((S)-1-((3R,5'S)-5-azido-5'-cyano-2-oxospiro[indoline-3,3'-pyrrolidin]-1'-yl)-4-methyl-1-oxopentan-2-yl)-4,6-difluoro-N-methyl-1H-indole-2-carboxamide] | < 100
22 | CC(C)C[C@@H](C(=O)N1C[C@]2(C[C@H]1C#N)C(=O)Nc1ccccc12)N(C)C(=O)c1cc(OC2CC2)c2ncc(C3CC3)cc2c1 [Example 324] | 100 to 1000
23 | CC(C)C[C@@H](C(=O)N1C[C@]2(C[C@H]1C#N)C(=O)Nc1ccccc12)N(C)C(=O)c1c(Cl)cccc1Cl [Example 64] | > 1000
24 | CC(C)C[C@@H](C(=O)N1C[C@]2(C[C@H]1C(O)S(=O)(=O)O)C(=O)Nc1ccccc12)N(C)C(=O)c1cc2c(F)cc(F)cc2[nH]1 (some centres unmarked) [Example 153] | < 100
25 | CN(C(=O)[C@H](O)C(C)(C)C)[C@@H](CC1CC1)C(=O)N1C[C@]2(C[C@H]1C#N)C(=O)Nc1ccccc12 [Example 417] | < 100
26 | CC(C)C[C@@H](C(=O)N1C[C@]2(C[C@H]1C#N)C(=O)Nc1ccccc12)N(C(=O)OCc1ccccc1)C(C)C [Example 160] | > 1000
27 | CC(C)C[C@@H](C(=O)N1C[C@]2(C[C@H]1C#N)C(=O)Nc1ccccc12)N(C)C(=O)c1ccc2nc(N)sc2c1 [Example 225] | 100 to 1000
28 | CCN(C(=O)c1cc2c(F)cccc2[nH]1)[C@@H](CC(C)C)C(=O)N1C[C@]2(C[C@H]1C#N)C(=O)Nc1ccccc12 [Example 95] | 100 to 1000
29 | CC(C)C[C@@H](C(=O)N1C[C@]2(C[C@H]1C#N)C(=O)Nc1ccccc12)N(C)C(=O)c1c(Cl)cc(F)cc1Cl [Example 186] | < 100
30 | CCCC[C@H](NC(=O)[C@@H](O)c1ccc(F)cc1)C(=O)N1C[C@]2(C[C@H]1C#N)C(=O)Nc1ccccc12 [Example 418] | 100 to 1000
31 | N#C[C@@H]1C[C@@]2(CN1C(=O)[C@H](CC1CC1)NC(=O)OCc1ccccc1)C(=O)Nc1ccccc12 [Example 4] | 100 to 1000
32 | [2H]C([2H])([2H])N(C(=O)c1cn(C2CCC2)nn1)[C@@H](CC(C)(C)C)C(=O)N1C[C@]2(C[C@H]1C#N)C(=O)Nc1ccccc12 [Example 379] | < 100
33 | CC(C)C[C@H](NC(=O)OCc1ccccc1)C(=O)N1C[C@]2(C[C@H]1C#N)C(=O)Nc1ccccc12 [Example 1] | 100 to 1000
34 | C[C@@H](OC(=O)N[C@@H](CC(C)(C)C)C(=O)N1C[C@]2(C[C@H]1C#N)C(=O)Nc1ccc(Cl)cc12)c1ccc(F)cc1 [Example 495] | 100 to 1000
35 | Cc1cccc2[nH]c(C(=O)N(C)[C@@H](CC(C)C)C(=O)N3C[C@]4(C[C@H]3C#N)C(=O)Nc3ccccc34)nc12 [Example 252] | < 100
36 | CC(C)C[C@@H](C(=O)N1C[C@]2(C[C@H]1C#N)C(=O)Nc1ccccc12)N(C)C(=O)c1cc2c(F)cccc2[nH]1 [Example 44] | < 100
37 | CC(C)C[C@@H](C(=O)N1C[C@]2(C[C@H]1C#N)C(=O)Nc1ccccc12)N(C)C(=O)c1ccc2ccsc2c1 [Example 246] | < 100
38 | CC(C)(F)C[C@H](NC(=O)c1cc2c(F)cc(F)cc2[nH]1)C(=O)N1C[C@]2(C[C@H]1C#N)C(=O)Nc1ccc(Cl)cc12 [Example 123] | < 100

Row | Structure (SMILES) | EC50 [nM]
39 | CC(C)C[C@@H](C(=O)N1C[C@]2(C[C@H]1C#N)C(=O)Nc1ccccc12)N(C)C(=O)c1ccc2cn[nH]c2c1 [Example 223] | < 100
40 | CC(C)(C)C[C@H](NC(=O)Nc1ccc2ccccc2c1)C(=O)N1C[C@]2(C[C@H]1C#N)C(=O)Nc1ccccc12 [Example 439] | < 100
41 | CC(C)C[C@@H](C(=O)N1C[C@]2(C[C@H]1C#N)C(=O)Nc1ccccc12)N(C)C(=O)c1cc(OC2CC2)c2nc(Cl)ccc2c1 [Example 310] | 100 to 1000
42 | CN(C(=O)C(F)(F)F)[C@@H](CC(C)(C)C)C(=O)N1C[C@]2(C[C@H]1C#N)C(=O)Nc1ccccc12 [Example 374] | 100 to 1000
43 | CC(C)C[C@@H](O)C(=O)N(C)[C@@H](CC1CC1)C(=O)N1C[C@]2(C[C@H]1C#N)C(=O)Nc1ccccc12 [Example 424] | < 100
44 | CC(C)C[C@@H](C(=O)N1C[C@]2(C[C@H]1C#N)C(=O)Nc1ccccc12)N(C)C(=O)c1ccc(Cl)c(C(F)(F)F)c1 [Example 174] | < 100
45 | COc1cccc2[nH]c(C(=O)N[C@H](CC3CCCCC3)C(=O)N3C[C@]4(C[C@H]3C#N)C(=O)Nc3ccccc34)cc12 [Example 14] | < 100
46 | CC(C)C[C@@H](C(=O)N1C[C@]2(C[C@H]1C#N)C(=O)Nc1ccccc12)N(C)C(=O)c1cn(-c2ccccn2)nn1 [Example 267] | < 100
47 | CC(C)C[C@@H](C(=O)N1C[C@]2(C[C@H]1C#N)C(=O)Nc1ccccc12)N(C)C(=O)c1cncc(C#N)c1 [Example 60] | 100 to 1000
48 | COc1ccc(Cl)cc1C(=O)N(C)[C@@H](CC(C)C)C(=O)N1C[C@]2(C[C@H]1C#N)C(=O)Nc1ccccc12 [Example 170] | < 100
49 | CC(C)C[C@@H](C(=O)N1C[C@]2(C[C@H]1C#N)C(=O)Nc1ccccc12)N(C)C(=O)c1ccc2nc(-c3ccccc3)ccc2c1 [Example 257] | < 100
50 | [2H]C([2H])([2H])N(C(=O)c1cn(C2CC2)nn1)[C@@H](CC(C)(C)C)C(=O)N1C[C@]2(C[C@H]1C#N)C(=O)Nc1ccccc12 [Example 378] | < 100
51 | C[C@H](C(=O)N(C)[C@@H](CC(C)(C)C)C(=O)N1C[C@]2(C[C@H]1C#N)C(=O)Nc1ccccc12)c1cnn(C)c1 [Example 373] | 100 to 1000
52 | C#CCOC[C@H](NC(=O)c1cc2c(OC)cccc2[nH]1)C(=O)N1C[C@]2(C[C@H]1C#N)C(=O)Nc1ccccc12 [Example 127] | < 100
53 | CC(C)(C)C[C@H](NC(=O)c1cnn(-c2ccc(C(F)(F)F)cc2)c1)C(=O)N1C[C@]2(C[C@H]1C#N)C(=O)Nc1ccccc12 [Example 145] | < 100
54 | CC(C)C[C@@H](C(=O)N1C[C@]2(C[C@H]1C#N)C(=O)Nc1ccccc12)N(C)C(=O)Cc1ccccc1 [Example 226] | < 100
55 | [2H]C([2H])([2H])N(C(=O)c1cc2c(F)cc(F)cc2[nH]1)[C@@H](CC(C)(C)F)C(=O)N1C[C@]2(C[C@H]1C#N)C(=O)Nc1ccc(Cl)cc12 [Example 454, N-((S)-1-((3R,5'S)-5-chloro-5'-cyano-2-oxospiro[indoline-3,3'-pyrrolidin]-1'-yl)-4-fluoro-4-methyl-1-oxopentan-2-yl)-4,6-difluoro-N-(methyl-d3)-1H-indole-2-carboxamide] | < 100
56 | Cc1cnc2ccc(C(=O)N[C@@H](CC(C)(C)C)C(=O)N3C[C@]4(C[C@H]3C#N)C(=O)Nc3ccccc34)cc2c1 [Example 135] | < 100
